Laboratory results: ChEMBL document CHEMBL1130621, “Synthesis of a non-nucleoside reverse transcriptase inhibitor in the alkenyldiarylmethane (ADAM) series with optimized potency and therapeutic index” (Bioorg Med Chem Lett, 1998)

Assays:
CEM-SS [1] = assay: Compound was tested for cytotoxicity in uninfected CEM-SS cells; format: functional; conditions: Homo sapiens
CEM-SS [2] = assay: Compound was tested for the prevention of cytopathic effect of HIV-1 RF in CEM-SS cells; format: functional, cell-based; conditions: Homo sapiens
MT4 [3] = assay: Compound was tested for the inhibition of cytopathic effect of HIV-1 6S in MT-4 cells; format: functional, Homo sapiens
MT4 [4] = assay: Compound was tested for the inhibition of cytopathic effect of HIV-1 N119 in MT-4 cells; format: functional, Homo sapiens

Structure (SMILES)	CC50 (CEM-SS [1])	EC50 (CEM-SS [2])	Activity (MT4 [3])	Activity (MT4 [4])
COC(=O)CCCC=C(c1cc(Cl)c(OC)c(C(=O)OC)c1)c1cc(Cl)c(OC)c(C(=O)OC)c1	31.6 µM	0.013 µM		
CCCCCC=C(c1cc(Br)c(OC)c(C(=O)OC)c1)c1cc(Br)c(OC)c(C(=O)OC)c1			0.56 µM	151 µM
